What all share (type): biochemical
One experiment deals with Recombinant human TRKB (Homo sapiens (Human), UniProt Q16620). Nature of the experiment: In vitro activity test on TRKB kinase (HTRF kinEASE TK). Conditions: 4.77 μM ATP, 50 min, room temperature. How it is done:
(§1) Recombinant human TRKA, TRKB, TRKC proteins were purchased from Carna Biosciences. HTRF kinEASE TK kit was purchased from Cisbio Bioassays. Synergy Neo 2 of Biotek was used to read the plate.
(§2) The tested compounds were subjected to 3-fold serial dilution to reach a final concentration of 1 μM to 0.05 nM (10 concentrations), duplicates for each concentration; and the DMSO concentration in the detection reaction was 1%.
0.037 ng/μL TRKB protein kinase, 1 μM TK Substrate-biotin polypeptide substrate, 4.77 μM ATP, 1× enzymatic buffer, 5 mM MgCl2, 1 mM MnCl2 and 1 mM DTT. The assay plate was White Proxiplate 384-Plus plate (PerkinElmer), the reaction was incubated at room temperature for 50 min, and the assay volume was 10 μL.
(§3) 10 μL of detection reagent (containing 0.125 μM SA-XL665 and 5 μL 1×TK-Antibody) was added to the plate and incubated overnight at room temperature. Synergy Neo 2 was used to read the plate.
(§4) The 665/620 Ratio was converted according to the following formula into inhibition rate (%)=(1−Ratiotest/Ratiomax)×100%. Ratiomax was the value of positive controls without tested compound, and Ratiotest was the value of each concentration of different compounds. IC50 (nM) data was obtained by 4 parameter curve fitting (see Table 1).
(TR-FRET usually uses a lanthanide donor and a delayed reading to cut background.)

The target of a further experiment is Recombinant human TRKC (Homo sapiens (Human), UniProt Q16288). Nature of the experiment: In vitro activity test on TRKC kinase (HTRF kinEASE TK). Conditions: 25.64 μM ATP, 40 min, room temperature. How it is done: as §1, §2
0.037 ng/μL TRKC protein kinase, 1 μM TK Substrate-biotin polypeptide substrate, 25.64 μM ATP, 1× enzymatic buffer, 5 mM MgCl2, and 1 mM DTT. The detection plate was White Proxiplate 384-Plus plate (PerkinElmer), the reaction was incubated at room temperature for 40 min, and the assay volume was 10 μL.
as §3, §4

Another experiment has as its target Recombinant human TRKA (Homo sapiens (Human), UniProt P04629). The experiment in a line: In vitro activity test on TRKA kinase (HTRF kinEASE TK). To be noted: 14.68 μM ATP, 40 min, room temperature. How it is done:
as §1, §2
0.2 ng/μL TRKA protein kinase, 1 μM TK Substrate-biotin polypeptide substrate, 14.68 μM ATP, 1×enzymatic buffer, 5 mM MgCl2, and 1 mM DTT. The assay plate was White Proxiplate384-Plus plate (PerkinElmer), and the reaction was incubated at room temperature for 40 min, and the assay volume was 10 μL.
as §3, §4

Experiment [1] deals with recombinant human TRKA (G595R) (Homo sapiens (Human), UniProt P04629, G595R). Nature of the experiment: In vitro activity test on mutant TRKA (G595R) (HTRF kinEASE TK). To be noted: 4.5 μM ATP, 30 min, room temperature; read-out: TRKA (G595R) IC 50. How it is done:
The recombinant human TRKA (G595R), TRKA (G667C) and TRKC (G623R) proteins were purchased from SignalChem. HTRF kinEASE TK kit was purchased from Cisbio Bioassays. Synergy Neo 2 of Biotek was used to read the plate.
The tested compounds were subjected to 4-fold serial dilution to reach a final concentration of 1 μM to 0.004 nM (10 concentrates), duplicates for each concentration; and the final concentration of DMSO in the reaction was 1%.
0.12 ng/μL TRKA (G595R) kinase, 1 μM TK Substrate-biotin polypeptide substrate, 4.5 μM ATP, 1× enzymatic buffer, 5 mM MgCl2, and 1 mM DTT. The assay plate was White Proxiplate384-Plus plate (PerkinElmer), and the reaction was incubated at room temperature for 30 min, and the assay volume was 10 μL.
10 μL of detection reagent (containing 0.125 μM SA-XL665 and 5 μL 1×TK-Antibody) was added to the plate and incubated overnight at room temperature, and Synergy Neo 2 was used to read the plate.
The value of 665/620 Ratio minus the value of negative control wells without enzyme, then the obtained value was converted according to the following formula into inhibition rate (%)=(1−Ratiotest/Ratiomax)×100%. Ratiomax was the value of positive controls without tested compound, and Ratiotest was the value of each concentration of different compounds. IC50 (nM) data was obtained by 4 parameter curve fitting (see Table 3).

The values that follow come from US12391687B2, “Five-and-six-membered heterocyclic compound and use thereof as protein receptor kinase inhibitor” (SHANGHAI ENNOVABIO PHARMACEUTICALS CO., LTD., priority 2018, dated 2025).

Sequence of Recombinant human TRKB (Q16620 32-822): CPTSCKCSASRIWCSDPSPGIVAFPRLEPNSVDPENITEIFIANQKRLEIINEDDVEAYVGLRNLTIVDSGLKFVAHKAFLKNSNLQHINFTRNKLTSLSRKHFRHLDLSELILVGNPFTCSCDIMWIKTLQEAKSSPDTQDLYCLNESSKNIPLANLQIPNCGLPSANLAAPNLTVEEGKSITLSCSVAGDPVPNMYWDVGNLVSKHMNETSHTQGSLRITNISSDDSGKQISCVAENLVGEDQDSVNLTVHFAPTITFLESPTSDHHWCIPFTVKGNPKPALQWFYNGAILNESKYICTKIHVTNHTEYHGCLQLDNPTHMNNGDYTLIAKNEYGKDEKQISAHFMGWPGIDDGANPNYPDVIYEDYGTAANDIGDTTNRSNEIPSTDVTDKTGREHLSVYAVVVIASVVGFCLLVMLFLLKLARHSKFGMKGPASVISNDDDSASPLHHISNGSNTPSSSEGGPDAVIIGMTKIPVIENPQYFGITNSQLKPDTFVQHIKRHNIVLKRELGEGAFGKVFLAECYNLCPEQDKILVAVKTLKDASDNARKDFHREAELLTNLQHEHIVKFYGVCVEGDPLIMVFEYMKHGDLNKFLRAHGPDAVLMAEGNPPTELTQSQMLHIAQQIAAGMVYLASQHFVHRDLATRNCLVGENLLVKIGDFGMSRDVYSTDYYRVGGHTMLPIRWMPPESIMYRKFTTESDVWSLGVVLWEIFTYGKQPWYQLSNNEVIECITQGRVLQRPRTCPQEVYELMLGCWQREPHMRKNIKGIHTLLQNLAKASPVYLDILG
Sequence of Recombinant human TRKA (P04629 33-796): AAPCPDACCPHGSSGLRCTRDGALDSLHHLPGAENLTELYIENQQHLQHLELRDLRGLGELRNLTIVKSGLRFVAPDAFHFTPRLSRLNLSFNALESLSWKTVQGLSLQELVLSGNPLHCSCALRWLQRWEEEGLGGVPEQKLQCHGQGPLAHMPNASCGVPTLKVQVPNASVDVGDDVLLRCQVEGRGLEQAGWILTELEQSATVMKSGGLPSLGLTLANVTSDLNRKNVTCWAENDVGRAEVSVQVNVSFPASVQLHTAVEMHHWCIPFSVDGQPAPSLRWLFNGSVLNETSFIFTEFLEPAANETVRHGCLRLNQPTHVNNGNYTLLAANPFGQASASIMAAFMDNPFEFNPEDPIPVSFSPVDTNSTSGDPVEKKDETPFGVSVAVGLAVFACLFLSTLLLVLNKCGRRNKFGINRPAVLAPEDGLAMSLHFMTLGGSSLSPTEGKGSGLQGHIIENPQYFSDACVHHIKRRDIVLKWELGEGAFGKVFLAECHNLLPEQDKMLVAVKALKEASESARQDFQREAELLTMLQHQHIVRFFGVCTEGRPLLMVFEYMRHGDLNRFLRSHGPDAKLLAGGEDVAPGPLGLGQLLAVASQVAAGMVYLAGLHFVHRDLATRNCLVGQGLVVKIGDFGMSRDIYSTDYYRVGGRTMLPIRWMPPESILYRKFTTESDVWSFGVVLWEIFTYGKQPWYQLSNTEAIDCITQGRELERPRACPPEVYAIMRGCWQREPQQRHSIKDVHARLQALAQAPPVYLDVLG
Sequence of recombinant human TRKA (G595R) (P04629 33-796 G595R): as the sequence (P04629 33-796) above, with G563R counted along it
Sequence of Recombinant human TRKC (Q16288 32-839): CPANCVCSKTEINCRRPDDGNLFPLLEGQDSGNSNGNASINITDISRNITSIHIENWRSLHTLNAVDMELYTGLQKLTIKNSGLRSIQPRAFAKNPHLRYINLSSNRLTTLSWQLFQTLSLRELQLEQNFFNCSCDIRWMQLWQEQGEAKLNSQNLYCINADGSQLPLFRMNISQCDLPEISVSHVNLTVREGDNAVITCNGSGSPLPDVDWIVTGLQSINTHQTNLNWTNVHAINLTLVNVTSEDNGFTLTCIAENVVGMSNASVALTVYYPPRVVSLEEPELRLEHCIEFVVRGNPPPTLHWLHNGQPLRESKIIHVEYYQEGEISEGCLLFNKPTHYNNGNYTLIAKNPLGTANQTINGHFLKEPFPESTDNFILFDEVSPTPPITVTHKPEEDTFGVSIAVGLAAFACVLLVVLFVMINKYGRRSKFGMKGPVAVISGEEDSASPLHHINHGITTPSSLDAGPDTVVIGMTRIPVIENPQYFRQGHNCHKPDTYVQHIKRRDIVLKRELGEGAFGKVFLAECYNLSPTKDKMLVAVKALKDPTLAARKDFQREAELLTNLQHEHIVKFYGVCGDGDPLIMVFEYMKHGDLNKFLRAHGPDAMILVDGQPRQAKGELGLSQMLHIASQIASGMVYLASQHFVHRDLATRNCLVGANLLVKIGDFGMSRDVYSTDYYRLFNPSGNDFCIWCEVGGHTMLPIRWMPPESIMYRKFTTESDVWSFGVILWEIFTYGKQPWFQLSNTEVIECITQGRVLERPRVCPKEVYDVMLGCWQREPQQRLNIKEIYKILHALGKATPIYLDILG

As to `O=C1CC(n2cc(-c3cnc4[nH]nc(N5C[C@@H](F)C[C@@H]5c5cc(F)ccc5F)c4c3)cn2)CCN1` (stereo partly drawn) [Example 23, 4-(4-(3-((2R,4S)-2-(2,5-difluorophenyl)-4-fluoropyrrolidin-1-yl)-1H-pyrazolo[3,4-b]pyridin-5-yl)-1H-pyrazol-1-yl)piperidin-2-one], the IC50 on Recombinant human TRKB, on Recombinant human TRKC and on Recombinant human TRKA was under 10 nM throughout.
Consider `O=C(Nc1cnc2[nH]nc(N3CCC[C@@H]3c3cc(F)ccc3F)c2c1)N1CC[C@H](O)C1` [Example 2, (S)—N-(3-((R)-2-(2,5-difluorophenyl)pyrrolidin-1-yl)-1H-pyrazolo[3,4-b]pyridin-5-yl)-3-hydroxypyrrolidine-1-carboxamide], for which the IC50 on Recombinant human TRKB, at Recombinant human TRKC and at Recombinant human TRKA was under 500 nM throughout.
On to `O=C(O)c1cnc2[nH]nc(N3C[C@@H](F)C[C@@H]3c3cc(F)ccc3F)c2c1` [Example 17, 3-((2R,4S)-2-(2,5-difluorophenyl)-4-fluoropyrrolidin-1-yl)-1H-pyrazolo[3,4-b]pyridine-5-carboxylic acid], for which the IC50 in experiment [1] was under 10 nM; at Recombinant human TRKB it was under 1 nM; on Recombinant human TRKC it was under 1 nM; at Recombinant human TRKA it was under 1 nM.
For `O=C(Nc1cnc2[nH]nc(N3CCC[C@@H]3c3cc(F)ccc3F)c2c1)c1ccc(N2CC[C@H](O)C2)nc1` [Example 3, N-(3-((R)-2-(2,5-difluorophenyl)pyrrolidin-1-yl)-1H-pyrazolo[3,4-b]pyridin-5-yl)-6-((S)-3-hydroxypyrrolidin-1-yl)nicotinamide], the IC50 is under 100 nM at Recombinant human TRKB, under 50 nM at Recombinant human TRKC and under 50 nM on Recombinant human TRKA.
Consider `Fc1ccc(F)c([C@H]2C[C@H](F)CN2c2n[nH]c3ncc(-c4cnn(COCc5ccccc5)c4)cc23)c1` [Example 31, 5-(1-((benzyloxy)methyl)-1H-pyrazol-4-yl)-3-((2R,4S)-2-(2,5-difluorophenyl)-4-fluoropyrrolidin-1-yl)-1H-pyrazolo[3,4-b]pyridine], for which the IC50 is under 10 nM in experiment [1], under 1 nM on Recombinant human TRKB, under 10 nM on Recombinant human TRKC and under 10 nM on Recombinant human TRKA.
Take `CNC(=O)CC1(O)CCN(C(=O)Nc2cnc3[nH]nc(N4CCC[C@@H]4c4cc(F)ccc4F)c3c2)C1` (stereo partly drawn) [Example 1, N-(3-((R)-2-(2,5-difluorophenyl)pyrrolidin-1-yl)-1H-pyrazolo[3,4-b]pyridin-5-yl)-3-hydroxy-3-(2-(methylamino)-2-oxoethyl)pyrrolidine-1-carboxamide]: the IC50 at Recombinant human TRKB, at Recombinant human TRKC and on Recombinant human TRKA was under 500 nM in each case.
In the case of `COCc1nnc(-c2cnc3c(c2)c(N2C[C@@H](F)C[C@@H]2c2cc(F)ccc2F)nn3COC)o1` [Example 38, 2-(3-((2R,4S)-2-(2,5-difluorophenyl)-4-fluoropyrrolidin-1-yl)-1-(methoxymethyl)-1H-pyrazolo[3,4-b]pyridin-5-yl)-5-(methoxymethyl)-1,3,4-oxadiazole], the IC50 is under 10 nM at Recombinant human TRKB, under 100 nM on Recombinant human TRKC and under 100 nM at Recombinant human TRKA.
With `CC1(O)CCN(c2cnc(C(=O)Nc3cnc4[nH]nc(N5C[C@@H](F)C[C@@H]5c5cc(F)ccc5F)c4c3)cn2)C1` (stereo partly drawn) [Example 16, N-(3-((2R,4S)-2-(2,5-difluorophenyl)-4-fluoropyrrolidin-1-yl)-1H-pyrazolo[3,4-b]pyridin-5-yl)-5-(3-hydroxy-3-methylpyrrolidin-1-yl)pyrazine-2-carboxamide], the IC50 at Recombinant human TRKB was under 10 nM; at Recombinant human TRKC it was under 10 nM; at Recombinant human TRKA, under 1 nM.
With `Fc1ccc(F)c([C@H]2C[C@H](F)CN2c2n[nH]c3ncc(-c4cnn(C5CCOCC5)c4)cc23)c1` [Example 28, 3-((2R,4S)-2-(2,5-difluorophenyl)-4-fluoropyrrolidin-1-yl)-5-(1-(tetrahydro-2H-pyran-4-yl)-1H-pyrazol-4-yl)-1H-pyrazolo[3,4-b]pyridine], the IC50 (in experiment [1]; on Recombinant human TRKB; on Recombinant human TRKC; on Recombinant human TRKA) was under 1 nM in each case.
As to `CC(C)(O)CNC(=O)c1cnc2[nH]nc(N3CCC[C@@H]3c3cc(F)ccc3F)c2c1` [Example 10, (R)-3-(2-(2,5-difluorophenyl)pyrrolidin-1-yl)-N-(2-hydroxy-2-methylpropyl)-1H-pyrazolo[3,4-b]pyridine-5-carboxamide], the IC50 at Recombinant human TRKB was under 10 nM; at Recombinant human TRKC it was under 10 nM; at Recombinant human TRKA, under 50 nM.
As for `COCCNC(=O)c1cnc2[nH]nc(N3CCC[C@@H]3c3cc(F)ccc3F)c2c1` [Example 8, (R)-3-(2-(2,5-difluorophenyl)pyrrolidin-1-yl)-N-(2-methoxyethyl)-1H-pyrazolo[3,4-b]pyridine-5-carboxamide], the IC50 on Recombinant human TRKB was under 10 nM; at Recombinant human TRKC it was under 10 nM; on Recombinant human TRKA, under 50 nM.
Turning to `O=C(NCCO)c1cnc2[nH]nc(N3CCC[C@@H]3c3cc(F)ccc3F)c2c1` [Example 6, (R)-3-(2-(2,5-difluorophenyl)pyrrolidin-1-yl)-N-(2-hydroxyethyl)-1H-pyrazolo[3,4-b]pyridine-5-carboxamide], the IC50 on Recombinant human TRKB, on Recombinant human TRKC and on Recombinant human TRKA was under 50 nM throughout.
Turning to `NNC(=O)c1cnc2[nH]nc(N3C[C@@H](F)C[C@@H]3c3cc(F)ccc3F)c2c1` [Example 39, 3-((2R,4S)-2-(2,5-difluorophenyl)-4-fluoropyrrolidin-1-yl)-1H-pyrazolo[3,4-b]pyridine-5-carbohydrazide], the IC50 on Recombinant human TRKB, on Recombinant human TRKC and on Recombinant human TRKA was under 1 nM each time.
Consider `CN(C)C(=O)c1cnc2[nH]nc(N3C[C@@H](F)C[C@@H]3c3cc(F)ccc3F)c2c1` [Example 18, 3-((2R,4S)-2-(2,5-difluorophenyl)-4-fluoropyrrolidin-1-yl)-N,N-dimethyl-1H-pyrazolo[3,4-b]pyridine-5-carboxamide], for which the IC50 at Recombinant human TRKB, at Recombinant human TRKC and on Recombinant human TRKA was under 500 nM throughout.
With `O=C(NCCCO)c1cnc2[nH]nc(N3CCC[C@@H]3c3cc(F)ccc3F)c2c1` [Example 9, (R)-3-(2-(2,5-difluorophenyl)pyrrolidin-1-yl)-N-(3-hydroxypropyl)-1H-pyrazolo[3,4-b]pyridine-5-carboxamide], the IC50 was under 10 nM at Recombinant human TRKB, under 50 nM on Recombinant human TRKC and under 50 nM on Recombinant human TRKA.
With `O=C(N[C@H]1CC[C@@H](O)CC1)c1cnc2[nH]nc(N3CCC[C@@H]3c3cc(F)ccc3F)c2c1` [Example 14, 3-((R)-2-(2,5-difluorophenyl)pyrrolidin-1-yl)-N-((1s,4S)-4-hydroxycyclohexyl)-1H-pyrazolo[3,4-b]pyridine-5-carboxamide], the IC50 on Recombinant human TRKB, at Recombinant human TRKC and at Recombinant human TRKA was under 10 nM each time.
In the case of `NC(=O)c1cnc2[nH]nc(N3CCC[C@@H]3c3cc(F)ccc3F)c2c1` [Example 4, (R)-3-(2-(2,5-difluorophenyl)pyrrolidin-1-yl)-1H-pyrazolo[3,4-b]pyridine-5-carboxamide], the IC50 at Recombinant human TRKB, at Recombinant human TRKC and at Recombinant human TRKA was under 10 nM each time.
For `O=C(NCCCCO)c1cnc2[nH]nc(N3CCC[C@@H]3c3cc(F)ccc3F)c2c1` [Example 12, (R)-3-(2-(2,5-difluorophenyl)pyrrolidin-1-yl)-N-(4-hydroxybutyl)-1H-pyrazolo[3,4-b]pyridine-5-carboxamide], the IC50 on Recombinant human TRKB is under 50 nM; at Recombinant human TRKC it was under 10 nM; on Recombinant human TRKA, under 10 nM.
